Earlier results in US20230320397A1, “EXTRACTS FOR HEALTH SUPPLEMENTS” (EXTENDED LONGEVITY, priority 2022, published 2023).

Details: by the use of heat

SMILES: COc1cc(/C=C/C(=O)CC(=O)/C=C/c2ccc(O)c(OC)c2)ccc1O [curcumin]
- increased solubility: 12 fold
